The text below walks through data of patent US11932633B2, “KRas G12C inhibitors” (Mirati Therapeutics, Inc., priority 2018, dated 2024).

The structures appear in SMILES notation. Structures can show the parent of a compound that is named as a salt. Some results are limits rather than exact numbers.

Assay [1] has as its target T1, KRas G12C (Homo sapiens, UniProt P01116, C118S/C51S/C80L/G12C).
T1 construct: GDP-loaded K-Ras (1-169) G12C, C51S, C80L, C118S
The experiment in a line: KRas G12C Modification Assay (LCMS detection of covalent adduct). The following applies: 5 μM concentration for 3 hours. The class given is binding. As for the experimental part: This Example illustrates that exemplary compounds of the present invention covalently bind to KRas G12C using a LCMS assay to detect a covalent adduct of the exemplary compound and KRAS G12C.
The protein concentration of GDP-loaded K-Ras (1-169) G12C, C51S, C80L, C118S and GTP-loaded K-Ras (1-169) G12C, C51S, C80L, C118S, Q61H was adjusted to 2 μM in K-Ras Assay Buffer (25 mM HEPES, 150 mM NaCl, 5 mM MgCl2, and 10 mM Octyl β-glucopyranoside at pH 7.5). A 10 μL aliquot of each protein solution was transferred to a 384 well microtiter plate. Initial compound stocks were generated at fifty times their desired final assay concentration in DMSO.
Exemplary compounds of formula (I) were diluted 25-fold into K-Ras Assay Buffer to a final of two times their final concentration. A 10 μL aliquot of each diluted compound solution was added to each of the protein solutions in the microtiter plate to initiate reaction. Typical final compound concentrations were 3.0, 5.0 and 25.0 μM. At each time point, the reactions were quenched with 20 μL of a 25 mM acetic acid solution. Usual assay endpoints were 15, 180 and 1440 minutes. Once all reactions were quenched, the plates were heat sealed and the samples were injected into a LC/MS system for data acquisition.
Data collection took place on an Agilent 6520 Q-TOF Accurate Mass Spectrometer. Samples were injected in their liquid phase onto a C-3 reverse phase column to remove assay buffer and prepare the samples for mass spectrometer. The proteins were eluted from the column using an acetonitrile gradient and fed directly into the mass analyzer. Initial raw data analysis took place in Agilent MassHunter software immediately post data acquisition.
Raw data analysis of the intact protein was exclusively a deconvolution of the multiple charge states of each protein in solution using a maximum entropy deconvolution provided in Mass Hunter. To minimize complexity, only the data over limited mass ranges were considered for analysis, with a minimum of one Dalton mass step intervals. The heights of all masses identified during raw data analysis were exported to be further analyzed in Spotfire® data analysis software.
Final data analysis was a multistep process in the Spotfire® data analysis software package. Briefly, each protein mass was calculated as a percent of the total signal of that sample, that percentage was normalized to the percentage of signal of the protein in the absence of reactive compounds. Those normalized signals were reported as normalized percent of control (POC). […] Key: N.D. is not determined.

Assay [2] deals with T2, KRas G12C (Homo sapiens, UniProt P01116, G12C).
T2 construct: NCI-11358 cells (ATCC CRL-5807) express KRas G12C; host or cells: NCI-H358
The experiment in a line: Cellular inhibition of KRas G12C measured by Phospho-ERK in NCI-11358 cells. The assay is classed as cell-based. The note with it: NCI-11358 cells (ATCC CRL-5807), 3 hours; read-out: Inhibition (IC50, pERK (Thr202/Tyr204) signal normalized with GAPDH). Here is the method:
The cellular inhibition of KRAs G12C by exemplary compounds of the present invention was determined by measuring the amount of a downstream marker of KRas activity, phosphorylated ERK (“Phospho-ERK”).
NCI-11358 cells (ATCC CRL-5807) express KRas G12C and were grown in RPMI medium supplemented with 10% fetal bovine serum, penicillin/streptomycin and 10 mM HEPES. Cells were plated in poly-D-Lysine coated 96-well plates at a concentration of 50,000 cells/well and allowed to attach for 8-12 hours. Diluted compounds were then added at a final concentration of 0.5% DMSO. After 3 hours, the medium was removed, 150 μL of 4% formaldehyde was added and the plates were incubated for 20 minutes. The plates were washed with PBS, and permeabilized using 150 μL of ice cold 100% methanol for 10 minutes. Non-specific antibody binding to the plates was blocked using 100 μL Licor Blocking Buffer (Li-Cor Biotechnology, Lincoln NE) for 1 hour at room temperature. Positive control samples and samples lacking cells were parallel processed with test samples as standards.
The amount Phospho-ERK was determined using an antibody specific for the phosphorylated form of ERK and compared to the amount of GAPDH. Primary antibodies used for detection were added as follows: Phospho-ERK (Cell Signaling cs9101) diluted 1:500 and GAPDH (Millipore MAB374) diluted 1:5000 in Licor block+0.05% Tween 20. The plates were incubated for 2 hours at room temperature. The plates were washed with PBS+0.05% Tween 20.
Secondary antibodies used to visualize primary antibodies were added as follows: Anti-rabbit-680 diluted 1:1000 and Anti-mouse-800 diluted 1:1000 in Licor Block+0.05% Tween 20 and incubated for 1 hour at room temperature. The plates were washed with PBS+0.05% Tween 20. A 100 μL aliquot of PBS was added to each well and the plates were read on a LICOR AERIUS plate reader.
The pERK (Thr202/Tyr204) signal was normalized with the GAPDH signal and percent of DMSO control values were calculated. IC50 values were generated using a 4 parameter fit of the dose response curve. Key: “A”: ≤1 μM, “B”>1 μM and N.D.=not determined.

For the molecule `C=CC(=O)N1CC(CN2C(=O)COc3cc(-c4c(C)ccc5[nH]ncc45)c(Cl)cc32)C1` (single isomer, unassigned) [Example 10], the “POC (normalized percent of control, covalent modification of KRas G12C)” value at KRas G12C [1] (5 µM) is given as 53% of control. Besides, on KRas G12C [2], the IC50 was over 1000 nM.
The matching figures for `C=CC(=O)N1CC(CN2C(=O)COc3cc(-c4c(C)ccc5[nH]ncc45)c(Cl)cc32)C1` (single isomer, unassigned) [Example 11]: 96% of control and over 1000 nM.
In the case of `C=CC(=O)N1CC(CN2C(=O)[C@H](CCN(C)C)Oc3cc(-c4c(C)ccc5[nH]ncc45)c(Cl)cc32)C1` (single isomer, unassigned) [Example 35], the “POC (normalized percent of control, covalent modification of KRas G12C)” value at KRas G12C [1] (5 µM) is on record as 86% of control. Besides, the IC50 at KRas G12C [2] was at most 1000 nM.
With `C=CC(=O)N1CC(CN2C(=O)[C@H](CCN(C)C)Oc3cc(-c4c(C)ccc5[nH]ncc45)c(Cl)cc32)C1` (single isomer, unassigned) [Example 36], the “POC (normalized percent of control, covalent modification of KRas G12C)” value at KRas G12C [1] (5 µM) is on record as 27% of control. Moreover, the IC50 at KRas G12C [2] is over 1000 nM.
Consider `C=CC(=O)N1CC(CN2C(=O)COc3cc(-c4cc(O)cc5ccccc45)c(Cl)cc32)C1` [Example 1, 4-((1-acryloylazetidin-3-yl)methyl)-6-chloro-7-(3-hydroxynaphthalen-1-yl)-2H-benzo[b][1,4]oxazin-3(4H)-one], for which, on KRas G12C [1], the “POC (normalized percent of control, covalent modification of KRas G12C)” value is recorded as 104% of control. Moreover, the IC50 at KRas G12C [2] was at most 1000 nM.
As to `C=CC(=O)N1CC(CN2C(=O)C(CC(C)C)Oc3cc(-c4cc(O)cc5ccccc45)c(Cl)cc32)C1` (stereo not shown) [Example 2, 4-((1-acryloylazetidin-3-yl)methyl)-6-chloro-7-(3-hydroxynaphthalen-1-yl)-2-isobutyl-2H-benzo[b][1,4]oxazin-3(4H)-one], the “POC (normalized percent of control, covalent modification of KRas G12C)” value on KRas G12C [1] is reported as 94% of control. For the same molecule, the IC50 at KRas G12C [2] was over 1000 nM.
`C=CC(=O)N1CC(CN2C(=O)C(C3CCN(C)CC3)Oc3cc(-c4cc(O)cc5ccccc45)c(Cl)cc32)C1` (stereo not shown) [Example 3, 4-((1-acryloylazetidin-3-yl)methyl)-6-chloro-7-(3-hydroxynaphthalen-1-yl)-2-(1-methylpiperidin-4-yl)-2H-benzo[b][1,4]oxazin-3(4H)-one]: at KRas G12C [1], the “POC (normalized percent of control, covalent modification of KRas G12C)” value is listed as 91% of control. Moreover, the IC50 on KRas G12C [2] was at most 1000 nM.
Take `C=CC(=O)N1CC(CN2C(=O)C(CN3CCCC3)Oc3cc(-c4cc(O)cc5ccccc45)c(Cl)cc32)C1` (stereo not shown) [Example 4, 4-((1-acryloylazetidin-3-yl)methyl)-6-chloro-7-(3-hydroxynaphthalen-1-yl)-2-(pyrrolidin-1-ylmethyl)-2H-benzo[b][1,4]oxazin-3(4H)-one]: the “POC (normalized percent of control, covalent modification of KRas G12C)” value at KRas G12C [1] is 104% of control. Also, the IC50 at KRas G12C [2] is at most 1000 nM.
Regarding `C=CC(=O)N1CC(CN2C(=O)C(CN3CCC(N(C)C)CC3)Oc3cc(-c4cc(O)cc5ccccc45)c(Cl)cc32)C1` (stereo not shown) [Example 5, 4-((1-acryloylazetidin-3-yl)methyl)-6-chloro-2-((4-(dimethylamino)piperidin-1-yl)methyl)-7-(3-hydroxynaphthalen-1-yl)-2H-benzo[b][1,4]oxazin-3(4H)-one], the “POC (normalized percent of control, covalent modification of KRas G12C)” value on KRas G12C [1] is 95% of control. The IC50 on KRas G12C [2] was at most 1000 nM.
Take `C=CC(=O)N1CC(CN2C(=O)COc3c2ccc(-c2cc(O)cc4ccccc24)c3F)C1` [Example 6, 4-((1-acryloylazetidin-3-yl)methyl)-8-fluoro-7-(3-hydroxynaphthalen-1-yl)-2H-benzo[b][1,4]oxazin-3(4H)-one]: at KRas G12C [1], the “POC (normalized percent of control, covalent modification of KRas G12C)” value is reported as 86% of control. The IC50 on KRas G12C [2] is over 1000 nM.
As to `C=CC(=O)N1CC(CN2C(=O)COc3cc(-c4cc(O)ccc4OC(F)(F)F)c(Cl)cc32)C1` [Example 7, 4-((1-acryloylazetidin-3-yl)methyl)-6-chloro-7-(5-hydroxy-2-(trifluoromethoxy)phenyl)-2H-benzo[b][1,4]oxazin-3(4H)-one], at KRas G12C [1], the “POC (normalized percent of control, covalent modification of KRas G12C)” value was 96% of control. Moreover, the IC50 on KRas G12C [2] is over 1000 nM.
For `C=CC(=O)N1CC(CN2C(=O)C(CN3CCN(C)CC3)Oc3cc(-c4cc(O)cc5ccccc45)c(Cl)cc32)C1` (stereo not shown) [Example 8, 4-((1-acryloylazetidin-3-yl)methyl)-6-chloro-7-(3-hydroxynaphthalen-1-yl)-2-((4-methylpiperazin-1-yl)methyl)-2H-benzo[b][1,4]oxazin-3(4H)-one bis(2,2,2-trifluoroacetate)], the “POC (normalized percent of control, covalent modification of KRas G12C)” value at KRas G12C [1] is on record as 87% of control. Moreover, on KRas G12C [2], the IC50 was at most 1000 nM.
In the case of `C=CC(=O)N1CC(CN2C(=O)COc3cc(-c4cc(O)cc5ccccc45)ccc32)C1` [Example 12, 4-((1-acryloylazetidin-3-yl)methyl)-7-(3-hydroxynaphthalen-1-yl)-2H-benzo[b][1,4]oxazin-3(4H)-one], on KRas G12C [1], the “POC (normalized percent of control, covalent modification of KRas G12C)” value was 94% of control. Moreover, the IC50 at KRas G12C [2] was over 1000 nM.
As for `C=CC(=O)N1CC(F)(CN2C(=O)COc3cc(-c4cc(O)cc5ccccc45)c(Cl)cc32)C1` [Example 13, 4-((1-acryloyl-3-fluoroazetidin-3-yl)methyl)-6-chloro-7-(3-hydroxynaphthalen-1-yl)-2H-benzo[b][1,4]oxazin-3(4H)-one], the “POC (normalized percent of control, covalent modification of KRas G12C)” value at KRas G12C [1] is listed as 93% of control. For the same molecule, the IC50 at KRas G12C [2] is at most 1000 nM.
For the molecule `C=CC(=O)N1CC(CN2C(=O)CSc3cc(-c4cc(O)cc5ccccc45)ccc32)C1` [Example 14, 4-((1-acryloylazetidin-3-yl)methyl)-7-(3-hydroxynaphthalen-1-yl)-2H-benzo[b][1,4]thiazin-3(4H)-one], the “POC (normalized percent of control, covalent modification of KRas G12C)” value on KRas G12C [1] is listed as 102% of control. Besides, the IC50 at KRas G12C [2] is over 1000 nM.
`C=CC(=O)N1CC(CN2C(=O)COc3cc(-c4c(C)ccc5[nH]cnc45)c(Cl)cc32)C1` [Example 15, 4-((1-acryloylazetidin-3-yl)methyl)-6-chloro-7-(5-methyl-1H-benzo[d]imidazol-4-yl)-2H-benzo[b][1,4]oxazin-3(4H)-one trifluoroacetate salt]: the “POC (normalized percent of control, covalent modification of KRas G12C)” value at KRas G12C [1] is given as 97% of control. The IC50 at KRas G12C [2] was over 1000 nM.
The like results for `C=CC(=O)N1CC(CN2C(=O)COc3c2cc(Cl)c(-c2cc(O)cc4ccccc24)c3F)C1` [Example 16, 4-((1-acryloylazetidin-3-yl)methyl)-6-chloro-8-fluoro-7-(3-hydroxynaphthalen-1-yl)-2H-benzo[b][1,4]oxazin-3(4H)-one] were, in that order, 100% of control and over 1000 nM.
